From patent US9745289B2, “Aldosterone synthase inhibitors” (Boehringer Ingelheim International GmbH, priority 2014, dated 2017)
Where “and” joins values, the source holds several entries; their conditions need not be identical. Identical values can stand only once.

The molecules below were run against cortisol synthase (CYP11B1) (Macaca fascicularis, UniProt A0A2K5ULY1) (assay: Inhibition of Cortisol Synthesis). Conditions: cynomolgus adrenal gland mitochondria; 150 units of CYP11B1, 11-deoxycortisol as substrate, cortisol measured as product.
Format: biochemical, cynomolgus monkey
Procedure, shortened: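 Cynomolgus adrenal mitochondria as enzyme source (1 unit = 1 pmol product/h); 150 units CYP11B1 with 11-deoxycortisol substrate in 100 mM potassium phosphate pH 7.4, 1% DMSO, started with 1 mM NADPH, 90 min at 37 °C. Cortisol quantified by mass spectrometry; no-NADPH blank as 0%, no-compound as 100% activity.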

Compound | IC50
NC(=O)c1cccc2c1OCC(c1cncc(C(O)C(F)(F)F)c1)O2 (single isomer, unassigned) [Cpd 49AB, 2-[5-(2,2,2-Trifluoro-1-hydroxy-ethyl)-pyridin-3-yl]-2,3-dihydro-benzo[1,4]dioxine-5-carboxylic acid amide] | 1.1 µM
NC(=O)c1cccc2c1OCC(c1cncc(C(O)C(F)(F)F)c1)O2 (single isomer, unassigned) [Cpd 49BA, 2-[5-(2,2,2-Trifluoro-1-hydroxy-ethyl)-pyridin-3-yl]-2,3-dihydro-benzo[1,4]dioxine-5-carboxylic acid amide] | 2.5 µM and 1.1 µM
N#Cc1cccc2c1OCC(c1cncc(C3(O)CCOCC3)c1)O2 (single isomer, unassigned) [Cpd 50B, 2-[5-(4-Hydroxy-tetrahydro-pyran-4-yl)-pyridin-3-yl]-2,3-dihydro-benzo[1,4]dioxine-5-carbonitrile] | 3.3 µM
NC(=O)c1cccc2c1OCC(c1cncc(F)c1)O2 (single isomer, unassigned) [Cpd 51A, 2-(5-Fluoro-pyridin-3-yl)-2,3-dihydro-benzo[1,4]dioxine-5-carboxylic acid amide] | 1.2 µM
NC(=O)c1cccc2c1OCC(c1cncc(F)c1)O2 (single isomer, unassigned) [Cpd 51B, 2-(5-Fluoro-pyridin-3-yl)-2,3-dihydro-benzo[1,4]dioxine-5-carboxylic acid amide] | 20 µM
NC(=O)c1cccc2c1OCC(c1cncc3c1CCC3O)O2 (single isomer, unassigned) [Cpd 52AA, 2-(7-Hydroxy-6,7-dihydro-5H-[2]pyrindin-4-yl)-2,3-dihydro-benzo[1,4]dioxine-5-carboxylic acid amide] | 4.1 µM
NC(=O)c1cccc2c1OCC(c1cncc3c1CCC3O)O2 (single isomer, unassigned) [Cpd 52AB, 2-(7-Hydroxy-6,7-dihydro-5H-[2]pyrindin-4-yl)-2,3-dihydro-benzo[1,4]dioxine-5-carboxylic acid amide] | 0.82 µM
NC(=O)c1cccc2c1OCC(c1cncc3c1CCC3O)O2 (single isomer, unassigned) [Cpd 52BA, 2-(7-Hydroxy-6,7-dihydro-5H-[2]pyrindin-4-yl)-2,3-dihydro-benzo[1,4]dioxine-5-carboxylic acid amide] | 16 µM
NC(=O)c1cccc2c1OCC(c1cncc3c1CCC3O)O2 (single isomer, unassigned) [Cpd 52BB, 2-(7-Hydroxy-6,7-dihydro-5H-[2]pyrindin-4-yl)-2,3-dihydro-benzo[1,4]dioxine-5-carboxylic acid amide] | 13 µM
CCS(=O)(=O)NCc1cncc(C2COc3c(C#N)cccc3O2)c1 (single isomer, unassigned) [Cpd 54A, Ethanesulfonic acid [5-(5-cyano-2,3-dihydro-benzo[1,4]dioxin-2-yl)-pyridin-3-ylmethyl]-amide] | 23 µM
CCS(=O)(=O)NCc1cncc(C2COc3c(C#N)cccc3O2)c1 (single isomer, unassigned) [Cpd 54B, Ethanesulfonic acid [5-(5-cyano-2,3-dihydro-benzo[1,4]dioxin-2-yl)-pyridin-3-ylmethyl]-amide] | 14 µM
N#Cc1cccc2c1OCC(c1cncc(CC(=O)N3CC[C@@H](O)C3)c1)O2 (single isomer, unassigned) [Cpd 55A] | 11 µM
N#Cc1cccc2c1OCC(c1cncc(CC(=O)N3CC[C@@H](O)C3)c1)O2 (single isomer, unassigned) [Cpd 55B] | > 30 µM
C[C@H](O)c1c(F)cncc1C1COc2c(cccc2C(N)=O)O1 (single isomer, unassigned) [Cpd 56A] | 14 µM
C[C@H](O)c1c(F)cncc1C1COc2c(cccc2C(N)=O)O1 (single isomer, unassigned) [Cpd 56B] | 14 µM
C[C@@H](O)c1c(F)cncc1C1COc2c(cccc2C(N)=O)O1 (single isomer, unassigned) [Cpd 57A] | 16 µM

Compound | IC50
C[C@@H](O)c1c(F)cncc1C1COc2c(cccc2C(N)=O)O1 (single isomer, unassigned) [Cpd 57B] | 15 µM
CC(C)(O)c1c(F)cncc1C1COc2c(cccc2C(N)=O)O1 (single isomer, unassigned) [Cpd 58A, 2-[5-Fluoro-4-(1-hydroxy-1-methyl-ethyl)-pyridin-3-yl]-2,3-dihydro-benzo[1,4]dioxine-5-carboxylic acid amide] | 23 µM
CC(C)(O)c1c(F)cncc1C1COc2c(cccc2C(N)=O)O1 (single isomer, unassigned) [Cpd 58B, 2-[5-Fluoro-4-(1-hydroxy-1-methyl-ethyl)-pyridin-3-yl]-2,3-dihydro-benzo[1,4]dioxine-5-carboxylic acid amide] | 3 µM
Cc1cncc(C2COc3c(cccc3C(N)=O)O2)c1 (single isomer, unassigned) [Cpd 59A, 2-(5-Methyl-pyridin-3-yl)-2,3-dihydro-benzo[1,4]dioxine-5-carboxylic acid amide] | 1.1 µM
Cc1cncc(C2COc3c(cccc3C(N)=O)O2)c1 (single isomer, unassigned) [Cpd 59B, 2-(5-Methyl-pyridin-3-yl)-2,3-dihydro-benzo[1,4]dioxine-5-carboxylic acid amide] | 0.89 µM
CCS(=O)(=O)NC(c1cncc(C2COc3c(cccc3C(N)=O)O2)c1)C1CC1 (single isomer, unassigned) [Cpd 60AA] | > 30 µM
CCS(=O)(=O)NC(c1cncc(C2COc3c(cccc3C(N)=O)O2)c1)C1CC1 (single isomer, unassigned) [Cpd 60AB] | > 30 µM
CCS(=O)(=O)NC(c1cncc(C2COc3c(cccc3C(N)=O)O2)c1)C1CC1 (single isomer, unassigned) [Cpd 60BA] | > 30 µM
CCS(=O)(=O)NC(c1cncc(C2COc3c(cccc3C(N)=O)O2)c1)C1CC1 (single isomer, unassigned) [Cpd 60BB] | > 30 µM
Cc1c(C#N)cncc1C1COc2c(cccc2C(N)=O)O1 (single isomer, unassigned) [Cpd 61A, 2-(5-cyano-4-methyl-pyridin-3-yl)-2,3-dihydro-benzo[1,4]dioxine-5-carboxylic acid amide] | 25 µM
Cc1c(C#N)cncc1C1COc2c(cccc2C(N)=O)O1 (single isomer, unassigned) [Cpd 61B, 2-(5-cyano-4-methyl-pyridin-3-yl)-2,3-dihydro-benzo[1,4]dioxine-5-carboxylic acid amide] | 22 µM
CS(=N)(=O)Cc1cncc(C2COc3c(C#N)cccc3O2)c1 (single isomer, unassigned) [Cpd 62AA, 2-(5-{[imino(methyl)oxo-λ^6-sulfanyl]methyl}pyridin-3-yl)-2,3-dihydro-1,4-benzodioxine-5-carbonitrile] | > 30 µM
CS(=N)(=O)Cc1cncc(C2COc3c(C#N)cccc3O2)c1 (single isomer, unassigned) [Cpd 62AB, 2-(5-{[imino(methyl)oxo-λ^6-sulfanyl]methyl}pyridin-3-yl)-2,3-dihydro-1,4-benzodioxine-5-carbonitrile] | > 30 µM
CS(=N)(=O)Cc1cncc(C2COc3c(C#N)cccc3O2)c1 (single isomer, unassigned) [Cpd 62BA, 2-(5-{[imino(methyl)oxo-λ^6-sulfanyl]methyl}pyridin-3-yl)-2,3-dihydro-1,4-benzodioxine-5-carbonitrile] | 14 µM
CS(=N)(=O)Cc1cncc(C2COc3c(C#N)cccc3O2)c1 (single isomer, unassigned) [Cpd 62BB, 2-(5-{[imino(methyl)oxo-λ^6-sulfanyl]methyl}pyridin-3-yl)-2,3-dihydro-1,4-benzodioxine-5-carbonitrile] | 18 µM
N#Cc1cccc2c1OCC(c1cncc(CNC(=O)C(F)(F)F)c1)O2 (centres unmarked) [Cpd 53, N-[5-(5-Cyano-2,3-dihydro-benzo[1,4]dioxin-2-yl)-pyridin-3-ylmethyl]-2,2,2-trifluoro-acetamide] | 24 µM
